Data taken from PubChem BioAssay (NCI).
Values joined by “and” are separate entries in the source; they are usually repeats but may differ in a detail not shown here. Equal entries are not always repeated.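 Test compounds were applied to cells in 96-well plates for 48 hours at 5 doses. GI50 marks 50% less growth. At the TGI there is no net growth.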

Key:
Assay in all cases: NCI tumour cell line growth inhibition, 48 h
MDA-MB-231 breast = tested on: MDA-MB-231 breast
MDA-MB-435 = tested on: MDA-MB-435
MOLT-4 leukemia = tested on: MOLT-4 leukemia
NCI-H23 lung = tested on: NCI-H23 lung
NCI-H460 lung = tested on: NCI-H460 lung
OVCAR-3 ovarian = tested on: OVCAR-3 ovarian
OVCAR-4 ovarian = tested on: OVCAR-4 ovarian
OVCAR-5 ovarian = tested on: OVCAR-5 ovarian
P388 leukemia = tested on: P388 leukemia
PC-3 prostate = tested on: PC-3 prostate
RPMI-8226 leukemia = tested on: RPMI-8226 leukemia
RXF 393 renal = tested on: RXF 393 renal
RXF-631 renal = tested on: RXF-631 renal
SF-268 CNS = tested on: SF-268 CNS
SF-295 CNS = tested on: SF-295 CNS
SF-539 CNS = tested on: SF-539 CNS
SK-MEL-2 melanoma = tested on: SK-MEL-2 melanoma
SK-OV-3 ovarian = tested on: SK-OV-3 ovarian
SN12C renal = tested on: SN12C renal
SN12K1 renal = tested on: SN12K1 renal
SNB-19 CNS = tested on: SNB-19 CNS
SNB-78 CNS = tested on: SNB-78 CNS
T-47D breast = tested on: T-47D breast
TK-10 renal = tested on: TK-10 renal
UACC-62 melanoma = tested on: UACC-62 melanoma
XF 498 CNS = tested on: XF 498 CNS

Structure (SMILES): O=NN(CCCl)C(=O)NCCCl
- GI50 (MDA-MB-231 breast): 61.8 µM and 224 µM
- TGI (MDA-MB-231 breast): 164 µM and 160 µM and > 295 µM
- GI50 (MDA-MB-435): 50 µM and 331 µM
- TGI (MDA-MB-435): 127 µM and 147 µM and > 500 µM
- GI50 (MOLT-4 leukemia): 39.3 µM and 110 µM
- TGI (MOLT-4 leukemia): 151 µM and 161 µM and 320 µM
- GI50 (NCI-H23 lung): > 272 µM
- TGI (NCI-H23 lung): 228 µM and 182 µM and > 367 µM
- GI50 (NCI-H460 lung): 62.4 µM
- TGI (NCI-H460 lung): 250 µM and 168 µM
- GI50 (OVCAR-3 ovarian): 63.9 µM and > 295 µM
- TGI (OVCAR-3 ovarian): 152 µM and 159 µM and > 372 µM
- GI50 (OVCAR-4 ovarian): 42.7 µM and > 352 µM
- TGI (OVCAR-4 ovarian): 83.3 µM and 161 µM and > 398 µM
- GI50 (OVCAR-5 ovarian): 52.3 µM and > 500 µM
- TGI (OVCAR-5 ovarian): 104 µM and 184 µM and > 500 µM
- TGI (P388 leukemia): 40.9 µM
- GI50 (PC-3 prostate): > 305 µM
- TGI (PC-3 prostate): 209 µM and > 390 µM
- GI50 (RPMI-8226 leukemia): 34.3 µM and 118 µM
- TGI (RPMI-8226 leukemia): 120 µM and 198 µM and 260 µM
- GI50 (RXF 393 renal): 45.3 µM and > 238 µM
- TGI (RXF 393 renal): 86.6 µM and 149 µM and > 299 µM
- TGI (RXF-631 renal): 203 µM
- GI50 (SF-268 CNS): 31 µM
- TGI (SF-268 CNS): 98.4 µM and 138 µM and > 259 µM
- GI50 (SF-295 CNS): 36.3 µM and 123 µM
- TGI (SF-295 CNS): 250 µM and 126 µM and > 380 µM
- GI50 (SF-539 CNS): 31 µM and 84.1 µM
- TGI (SF-539 CNS): 92.6 µM and 116 µM and 190 µM
- TGI (SK-MEL-2 melanoma): 115 µM and 178 µM and > 500 µM
- GI50 (SK-OV-3 ovarian): 226 µM and > 500 µM
- TGI (SK-OV-3 ovarian): 250 µM and 211 µM and > 500 µM
- GI50 (SN12C renal): 240 µM
- TGI (SN12C renal): 185 µM and 151 µM and > 310 µM
- TGI (SN12K1 renal): 127 µM
- GI50 (SNB-19 CNS): 61.1 µM and 169 µM
- TGI (SNB-19 CNS): 250 µM and 168 µM and > 380 µM
- TGI (SNB-78 CNS): 198 µM
- GI50 (T-47D breast): 74.7 µM and 234 µM
- TGI (T-47D breast): 250 µM and 220 µM and > 331 µM
- GI50 (TK-10 renal): 59.6 µM and > 279 µM
- TGI (TK-10 renal): 144 µM and 173 µM and > 373 µM
- GI50 (UACC-62 melanoma): 44.9 µM and > 151 µM
- TGI (UACC-62 melanoma): 169 µM and 91.9 µM and > 260 µM
- TGI (XF 498 CNS): 135 µM
